# According to patent publication US9840716B2, “Resveratrol-enriched rice and the use thereof” (REPUBLIC OF KOREA (MANAGEMENT: RURAL DEVELOPMENT …, priority 2012, dated 2017):
# Key:
# yeasts = details: on average, when resveratrol is added; cited from earlier work
# [1] = system: animal models (mice) induced with a metabolic disease by a long-term high fat diet; experiment: Comparative measurement of blood glucose in animal models induced with a metabolic disease; type: in vivo, C57BL/6 inbred mice; details: 12 weeks of feeding, compared with control or comparison groups
# Description: The effects of rice containing resveratrol of the present invention at high concentration on a metabolic disease were examined using animal models (mice) induced with a metabolic disease by a long-term high fat diet. Particularly, each of 15 C57BL/6 inbred mice was fed with a high fat diet for 12 weeks, thereby establishing models induced with a metabolic disease such as diabetes, obesity, hyperlipidemia, hypercholesterolemia, etc. Next, the feed produced from seeds of transformed rice or Dongjin rice was distributed to animals for 12 weeks. After 12 weeks of distribution, via blood sampling from a tail vein once every 3 weeks, blood glucose, cholesterol, etc., were analyzed, thereby examining the effects of resveratrol-enriched transgenic rice and transformed rice in animal models induced with a metabolic disease. As described above, after feeding feed for experimental animals, in which carbohydrate components were replaced with Dongjin rice and resveratrol-enriched transgenic rice to mice induced with a metabolic disease, the level of blood glucose was measured (FIG. 2). […] As described above, after feeding the feed, in which carbohydrate components were replaced with Dongjin rice and resveratrol-enriched transgenic rice, to mice with an induced metabolic disease, the level of blood glucose was measured (FIG. 5).
compound,measurement,setting,value
Oc1ccc(C=Cc2cc(O)cc(O)c2)cc1 [resveratrol],increase of the life span of yeasts,yeasts,70%
same,blood glucose level (result in words),[1],did not show a remarkable difference
